This is an account of results in US20230265116A1, “DEGRADATION OF (EGFR) BY CONJUGATION OF EGFR INHIBITORS WITH E3 LIGASE LIGAND AND METHODS OF USE” (BEIGENE, LTD., priority 2020, published 2023).

The test system of experiment [1] is EGFR Del19/T790M/C797S (BaF3-DTC cells). Description: EGFR degradation HTRF assay, BaF3-DTC cells. It counts as cell-based. The following applies: 16h treatment; for DTC Dmax (%): maximum percentage of degradation; for DC50: read-out: DTC DC50. The method in brief: (§1)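 EGFR remaining after a 16 h, 37 °C exposure (8 doses, 5-fold steps from 10 uM final, 0.2% DMSO) was quantified by HTRF antibodies in cell lysate. Percent inhibition relative to DMSO control was fitted by four-parameter logistic to give DC50; Dmax denotes maximal degradation.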
On the technique in general: In TR-FRET formats the signal depends on donor and acceptor labels being close together.

Experiment [2] concerns the target T1, EGFR L858R/T790M/C797S (BaF3-LTC cells) (Homo sapiens, UniProt P00533, C797S/L858R/T790M).
T1 construct: expressed in transfected cells; host or cells: BaF3
Description: EGFR degradation HTRF assay, BaF3-LTC cells. The note with it: BaF3-LTC, 16h treatment; for Dmax: maximum percentage of degradation, read-out: LTC Dmax (%); for DC50: read-out: LTC DC50. It counts as cell-based. The method in brief:
as §1

T1 sequence (P00533 25-1210 T790M/C797S/L858R): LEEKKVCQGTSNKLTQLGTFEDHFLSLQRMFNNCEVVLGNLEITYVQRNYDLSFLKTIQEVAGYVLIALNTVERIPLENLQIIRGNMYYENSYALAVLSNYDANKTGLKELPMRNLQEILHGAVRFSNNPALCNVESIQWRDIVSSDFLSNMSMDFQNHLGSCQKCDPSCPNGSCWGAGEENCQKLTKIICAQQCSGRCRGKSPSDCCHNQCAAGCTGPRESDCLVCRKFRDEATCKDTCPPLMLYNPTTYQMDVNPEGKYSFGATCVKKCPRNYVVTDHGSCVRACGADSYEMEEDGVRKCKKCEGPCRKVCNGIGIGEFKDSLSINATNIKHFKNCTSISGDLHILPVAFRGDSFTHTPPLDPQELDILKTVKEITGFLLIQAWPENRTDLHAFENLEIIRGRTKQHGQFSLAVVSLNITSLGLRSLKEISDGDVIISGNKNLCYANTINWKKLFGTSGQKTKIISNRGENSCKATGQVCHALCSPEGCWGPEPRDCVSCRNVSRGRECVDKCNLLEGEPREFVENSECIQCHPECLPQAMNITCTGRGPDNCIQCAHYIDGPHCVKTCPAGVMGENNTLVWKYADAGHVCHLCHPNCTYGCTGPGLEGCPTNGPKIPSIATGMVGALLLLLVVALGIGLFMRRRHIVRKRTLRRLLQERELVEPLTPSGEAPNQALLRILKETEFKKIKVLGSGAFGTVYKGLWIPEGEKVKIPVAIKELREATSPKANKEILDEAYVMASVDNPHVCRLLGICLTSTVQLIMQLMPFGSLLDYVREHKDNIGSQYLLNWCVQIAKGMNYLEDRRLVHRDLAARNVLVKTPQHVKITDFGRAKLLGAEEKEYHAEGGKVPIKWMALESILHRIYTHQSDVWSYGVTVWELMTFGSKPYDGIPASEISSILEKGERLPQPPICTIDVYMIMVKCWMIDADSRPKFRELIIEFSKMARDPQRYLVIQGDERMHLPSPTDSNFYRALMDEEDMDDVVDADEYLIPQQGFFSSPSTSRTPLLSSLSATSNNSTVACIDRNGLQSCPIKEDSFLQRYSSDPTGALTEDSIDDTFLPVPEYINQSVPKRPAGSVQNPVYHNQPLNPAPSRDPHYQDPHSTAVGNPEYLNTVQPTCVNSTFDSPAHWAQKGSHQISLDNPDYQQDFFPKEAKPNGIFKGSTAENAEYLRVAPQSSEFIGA

The term DC50 denotes the concentration giving 50% degradation. Usually Dmax stands for the largest share of the target that was removed. With `CCc1cc(Nc2ncc(Br)c(Nc3ccc4nccnc4c3P(C)(C)=O)n2)c(OC)cc1N1CCC(N2CCN(C(=O)[C@H]3CCN(c4cccc(C5CCC(=O)NC5=O)c4)C3)CC2)CC1` (stereo partly drawn) [Example 225, 3-(3-((S)-3-(4-(1-(4-((5-bromo-4-((5-(dimethylphosphoryl)quinoxalin-6-yl)amino)pyrimidin-2-yl)amino)-2-ethyl-5-methoxyphenyl)piperidin-4-yl)piperazine-1-carbonyl)pyrrolidin-1-yl)phenyl)piperidine-2,6-dione], in experiment [1], the “DTC Dmax (%)” value is listed as 89.48% and the DC50 worked out at 6.98 nM. In addition, in experiment [2], the Dmax came to 79.2% and the DC50 was 48.9 nM.

`CCc1cc(Nc2ncc(Br)c(Nc3ccc4nccnc4c3P(C)(C)=O)n2)c(OC)cc1N1CCC(N2CCN(CC3CN(c4cccc(C5CCC(=O)NC5=O)c4)C3)CC2)CC1` (centres unmarked) [Example 226, 3-(3-(3-((4-(1-(4-((5-bromo-4-((5-(dimethylphosphoryl)quinoxalin-6-yl)amino)pyrimidin-2-yl)amino)-2-ethyl-5-methoxyphenyl)piperidin-4-yl)piperazin-1-yl)methyl)azetidin-1-yl)phenyl)piperidine-2,6-dione]: in experiment [1], the “DTC Dmax (%)” value amounted to 77.91% and the DC50 was determined as 26.6 nM. Moreover, in experiment [2], the Dmax amounted to 66.9% and the 50% degradation concentration (DC50) is 31.4 nM.

On to `CCc1cc(Nc2ncc(Br)c(Nc3ccc4nccnc4c3P(C)(C)=O)n2)c(OC)cc1N1CCC(N2CCN(C(=O)C3CN(c4ccc5c(c4)C(=O)N(C4CCC(=O)NC4=O)C5)C3)CC2)CC1` (centres unmarked) [Example 227, 3-(6-(3-(4-(1-(4-((5-bromo-4-((5-(dimethylphosphoryl)quinoxalin-6-yl)amino)pyrimidin-2-yl)amino)-2-ethyl-5-methoxyphenyl)piperidin-4-yl)piperazine-1-carbonyl)azetidin-1-yl)-1-oxoisoindolin-2-yl)piperidine-2,6-dione], for which, in experiment [1], the “DTC Dmax (%)” value came to 90.5% and the DC50 turned out to be 4.87 nM. Besides, in experiment [2], the Dmax came to 91.8% and the DC50 turned out to be 10.3 nM.

Take `CCc1cc(Nc2ncc(Br)c(Nc3ccc4nccnc4c3P(C)(C)=O)n2)c(OC)cc1N1CCC(N2CCN(C(=O)C3CN(c4ccc(C5CCC(=O)NC5=O)c(F)c4)C3)CC2)CC1` (centres unmarked) [Example 228, 3-(4-(3-(4-(1-(4-((5-bromo-4-((5-(dimethylphosphoryl)quinoxalin-6-yl)amino)pyrimidin-2-yl)amino)-2-ethyl-5-methoxyphenyl)piperidin-4-yl)piperazine-1-carbonyl)azetidin-1-yl)-2-fluorophenyl)piperidine-2,6-dione]: in experiment [1], the “DTC Dmax (%)” value came to 79.14% and the DC50 is 3.49 nM. In addition, in experiment [2], the Dmax was 81.8% and the DC50 is 19.8 nM.

For `CCc1cc(Nc2ncc(Br)c(Nc3ccc4nccnc4c3P(C)(C)=O)n2)c(OC)cc1N1CCC(N2CCN(C(=O)C3CN(c4cccc(C5CCC(=O)NC5=O)c4)C3)CC2)CC1` (centres unmarked) [Example 230, 3-(3-(3-(4-(1-(4-((5-bromo-4-((5-(dimethylphosphoryl)quinoxalin-6-yl)amino)pyrimidin-2-yl)amino)-2-ethyl-5-methoxyphenyl)piperidin-4-yl)piperazine-1-carbonyl)azetidin-1-yl)phenyl)piperidine-2,6-dione], in experiment [1], the “DTC Dmax (%)” value is listed as 73.42% and the DC50 came to 9.11 nM. In experiment [2], the Dmax was 72% and the DC50 came to 19.8 nM.

On to `CCc1cc(Nc2ncc(Br)c(Nc3ccc4nccnc4c3P(C)(C)=O)n2)c(OC)cc1N1CCC(N2CCN(CC3CN(c4ccc(C5CCC(=O)NC5=O)cc4)C3)CC2)CC1` (centres unmarked) [Example 231, 3-(4-(3-((4-(1-(4-((5-bromo-4-((5-(dimethylphosphoryl)quinoxalin-6-yl)amino)pyrimidin-2-yl)amino)-2-ethyl-5-methoxyphenyl)piperidin-4-yl)piperazin-1-yl)methyl)azetidin-1-yl)phenyl)piperidine-2,6-dione], for which, in experiment [1], the “DTC Dmax (%)” value is on record as 76.04% and the DC50 is 8.28 nM. In addition, in experiment [2], the Dmax was found to be 77.6% and the DC50 amounted to 25.3 nM.

Take `CCc1cc(Nc2ncc(Br)c(Nc3ccc4nccnc4c3P(C)(C)=O)n2)c(OC)cc1N1CCC(N2CCN(C[C@H]3CCN(c4ccc5c(c4)C(=O)N(C4CCC(=O)NC4=O)C5=O)C3)CC2)CC1` (stereo partly drawn) [Example 232, 5-((R)-3-((4-(1-(4-((5-bromo-4-((5-(dimethylphosphoryl)quinoxalin-6-yl)amino)pyrimidin-2-yl)amino)-2-ethyl-5-methoxyphenyl)piperidin-4-yl)piperazin-1-yl)methyl)pyrrolidin-1-yl)-2-(2,6-dioxopiperidin-3-yl)isoindoline-1,3-dione]: in experiment [1], the “DTC Dmax (%)” value is 86.38% and the DC50 turned out to be 23.8 nM. Further, in experiment [2], the Dmax worked out at 86.9% and the DC50 was found to be 43 nM.

For the compound `CCc1cc(Nc2ncc(Br)c(Nc3ccc4nccnc4c3P(C)(C)=O)n2)c(OC)cc1N1CCC(N2CCN(CCc3cc(F)c(C4CCC(=O)NC4=O)cc3F)CC2)CC1` (centres unmarked) [Example 233, 3-(4-(2-(4-(1-(4-((5-bromo-4-((5-(dimethylphosphoryl)quinoxalin-6-yl)amino)pyrimidin-2-yl)amino)-2-ethyl-5-methoxyphenyl)piperidin-4-yl)piperazin-1-yl)ethyl)-2,5-difluorophenyl)piperidine-2,6-dione], in experiment [1], the “DTC Dmax (%)” value is 86.57% and the 50% degradation concentration (DC50) stood at 13.1 nM. Moreover, in experiment [2], the Dmax came to 80.6% and the DC50 was 35.3 nM.

On to `CCc1cc(Nc2ncc(Br)c(Nc3ccc4nccnc4c3P(C)(C)=O)n2)c(OC)cc1N1CCC(N2CCN(C[C@@H]3CCN(c4ccc5c(c4)CN(C4CCC(=O)NC4=O)C5=O)C3)CC2)CC1` (stereo partly drawn) [Example 234, 3-(5-((S)-3-((4-(1-(4-((5-bromo-4-((5-(dimethylphosphoryl)quinoxalin-6-yl)amino)pyrimidin-2-yl)amino)-2-ethyl-5-methoxyphenyl)piperidin-4-yl)piperazin-1-yl)methyl)pyrrolidin-1-yl)-1-oxoisoindolin-2-yl)piperidine-2,6-dione], for which, in experiment [1], the “DTC Dmax (%)” value is listed as 90.55% and the DC50 stood at 4.19 nM. Moreover, in experiment [2], the Dmax was found to be 87.8% and the DC50 came out at 15.8 nM.

With `CCc1cc(Nc2ncc(Br)c(Nc3ccc4nccnc4c3P(C)(C)=O)n2)c(OC)cc1N1CCC(N2CCN(C[C@@H]3CCN(c4ccc5c(c4)C(=O)N(C4CCC(=O)NC4=O)C5=O)C3)CC2)CC1` (stereo partly drawn) [Example 235, 5-((S)-3-((4-(1-(4-((5-bromo-4-((5-(dimethylphosphoryl)quinoxalin-6-yl)amino)pyrimidin-2-yl)amino)-2-ethyl-5-methoxyphenyl)piperidin-4-yl)piperazin-1-yl)methyl)pyrrolidin-1-yl)-2-(2,6-dioxopiperidin-3-yl)isoindoline-1,3-dione], in experiment [1], the “DTC Dmax (%)” value is reported as 81.09% and the DC50 amounted to 17.5 nM. Besides, in experiment [2], the Dmax came to 78% and the DC50 is 30.1 nM.

On to `CCc1cc(Nc2ncc(Br)c(Nc3ccc4nccnc4c3P(C)(C)=O)n2)c(OC)cc1N1CCC(N2CCN(C(=O)[C@H]3C[C@H](N(C)c4ccc5c(c4)C(=O)N(C4CCC(=O)NC4=O)C5=O)C3)CC2)CC1` (some centres unmarked) [Example 236, 5-(((1r,3r)-3-(4-(1-(4-((5-bromo-4-((5-(dimethylphosphoryl)quinoxalin-6-yl)amino)pyrimidin-2-yl)amino)-2-ethyl-5-methoxyphenyl)piperidin-4-yl)piperazine-1-carbonyl)cyclobutyl)(methyl)amino)-2-(2,6-dioxopiperidin-3-yl)isoindoline-1,3-dione], for which, in experiment [1], the “DTC Dmax (%)” value is listed as 90.89% and the DC50 came out at 6.3 nM. For the same compound, in experiment [2], the Dmax was found to be 83% and the DC50 was 33.5 nM.

Take `CCc1cc(Nc2ncc(Br)c(Nc3ccc4nccnc4c3P(C)(C)=O)n2)c(OC)cc1N1CCC(N2CCN(C[C@H]3CCN(c4ccc5c(c4)CN(C4CCC(=O)NC4=O)C5=O)C3)CC2)CC1` (stereo partly drawn) [Example 237, 3-(5-((R)-3-((4-(1-(4-((5-bromo-4-((5-(dimethylphosphoryl)quinoxalin-6-yl)amino)pyrimidin-2-yl)amino)-2-ethyl-5-methoxyphenyl)piperidin-4-yl)piperazin-1-yl)methyl)pyrrolidin-1-yl)-1-oxoisoindolin-2-yl)piperidine-2,6-dione]: in experiment [1], the “DTC Dmax (%)” value was determined as 92.67% and the DC50 was determined as 6.15 nM. In experiment [2], the Dmax turned out to be 92.5% and the DC50 turned out to be 9.47 nM.

With `CCc1cc(Nc2ncc(Br)c(Nc3ccc4nccnc4c3P(C)(C)=O)n2)c(OC)cc1N1CCC(N2CCN(CCc3cc(F)c(C4CCC(=O)NC4=O)c(Cl)c3)CC2)CC1` (centres unmarked) [Example 238, 3-(4-(2-(4-(1-(4-((5-bromo-4-((5-(dimethylphosphoryl)quinoxalin-6-yl)amino)pyrimidin-2-yl)amino)-2-ethyl-5-methoxyphenyl)piperidin-4-yl)piperazin-1-yl)ethyl)-2-chloro-6-fluorophenyl)piperidine-2,6-dione], in experiment [1], the “DTC Dmax (%)” value is recorded as 93.21% and the DC50 was found to be 9.2 nM. In addition, in experiment [2], the Dmax amounted to 88.3% and the DC50 worked out at 39.3 nM.

With `CCc1cc(Nc2ncc(Br)c(Nc3ccc4nccnc4c3P(C)(C)=O)n2)c(OC)cc1N1CCC(N2CCN(CC3CN(c4ccc5c(c4)C(=O)N(C4CCC(=O)NC4=O)C5)C3)CC2)CC1` (centres unmarked) [Example 239, 3-(6-(3-((4-(1-(4-((5-bromo-4-((5-(dimethylphosphoryl)quinoxalin-6-yl)amino)pyrimidin-2-yl)amino)-2-ethyl-5-methoxyphenyl)piperidin-4-yl)piperazin-1-yl)methyl)azetidin-1-yl)-1-oxoisoindolin-2-yl)piperidine-2,6-dione], in experiment [1], the “DTC Dmax (%)” value was 88.8% and the DC50 came out at 3.34 nM. In addition, in experiment [2], the Dmax came out at 87% and the DC50 was determined as 12.3 nM.
